Data from patent US20150344457A1, “METHODS OF INHIBITING PRMT5” (EPIZYME, INC., priority 2012, published 2015).

What was measured:
Z-138 cells [1] = experiment: Z-138 Proliferation Assay (Cell Titer Glo, 5 days); type: cell-based; conditions: Homo sapiens
Procedure, shortened: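 Exponentially growing Z-138 cells (10,000 cells/ml) in RPMI 1640 with 10% FBS are exposed to nine-point 3-fold dilutions (final top concentration 20 μM, 0.2% DMSO) for 5 days at 37° C. Viability is measured as ATP by CellTiter-Glo luminescence. The 50% inhibitory concentration comes from a 4-parameter fit.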

Z-138 cells [2] = experiment: Z-138 Methylation Assay (In Cell Western for symmetric di-methyl arginine and DNA content); type: cell-based; conditions: Homo sapiens
Procedure, shortened: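 Symmetric di-methyl arginine signal (800 nm) ratioed to DNA content (700 nm) by In Cell Western after four days of compound treatment of Z-138 suspension cells seeded at 50,000 cells/mL. Percent inhibition set between DMSO and 3 μM reference wells; IC50 curves from triplicates.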

[3] = 120 h, Table A-2, 5 days, top concentration 20 μM
[4] = Table A-2, 96 hours, symmetric di-methyl arginine, read-out: ICW EC50

Structure (SMILES) | EC50 (Z-138 cells [2]; [4]) | EC50 (Z-138 cells [2]; Table D-2, read-out: ICW EC50) | EC50 (Z-138 cells [1]; [3]) | EC50 (Z-138 cells [1]; Table D-2)
O=C(COc1cccc(CN2CCOCC2)c1)NCC(O)CN1CCc2ccccc2C1 (stereo not shown) [Compound A75] | < 0.1 µM | – | 1 to 10 µM | –
C[C@H](Oc1cccc2cccnc12)C(=O)NC[C@H](O)CN1CCc2ccccc2C1 [Compound A76] | 0.101 to 1 µM | – | 1 to 10 µM | –
O=C(COc1ccccc1N1CCOCC1)NC[C@H](O)CN1CCc2ccccc2C1 [Compound A77] | < 0.1 µM | – | 1 to 10 µM | –
O=C(COc1ccccc1N1CCNCC1)NCC(O)CN1CCc2ccccc2C1 (stereo not shown) [Compound A79] | 0.101 to 1 µM | – | 1 to 10 µM | –
CN1C(=O)COc2cccc(OCC(=O)NCC(O)CN3CCc4ccccc4C3)c21 (stereo not shown) [Compound A80] | 0.101 to 1 µM | – | 10 to 50 µM | –
CN1CCOc2cccc(OCC(=O)NCC(O)CN3CCc4ccccc4C3)c21 (stereo not shown) [Compound A81] | < 0.1 µM | – | 0.101 to 1 µM | –
Cn1ncc2c(OCC(=O)NCC(O)CN3CCc4ccccc4C3)cccc21 (stereo not shown) [Compound A82] | < 0.1 µM | – | 1 to 10 µM | –
O=C(COc1cccc(C(=O)N2CCOCC2)c1)NCC(O)CN1CCc2ccccc2C1 (stereo not shown) [Compound A83] | 0.101 to 1 µM | – | 10 to 50 µM | –
CN1CCN(c2ccccc2OCC(=O)NC[C@H](O)CN2CCc3ccccc3C2)CC1 [Compound A84] | 0.101 to 1 µM | – | 1 to 10 µM | –
O=C(COc1ccccc1OCCN1CCOCC1)NC[C@H](O)CN1CCc2ccccc2C1 [Compound A86] | 0.101 to 1 µM | – | 10 to 50 µM | –
CN(C)CCOc1ccccc1OCC(=O)NC[C@H](O)CN1CCc2ccccc2C1 [Compound A88] | 0.101 to 1 µM | – | 10 to 50 µM | –
CC(=O)N1CCN(c2ccccc2OCC(=O)NCC(O)CN2CCc3ccccc3C2)CC1 (stereo not shown) [Compound A90] | 0.101 to 1 µM | – | 10 to 50 µM | –
O=C(COc1cccc2c1CCNC2)NCC(O)CN1CCc2ccccc2C1 (stereo not shown) [Compound A91] | 0.101 to 1 µM | – | 1 to 10 µM | –
O=C(COc1cccc2nccnc12)NCC(O)CN1CCc2ccccc2C1 (stereo not shown) [Compound A92] | < 0.1 µM | – | 1 to 10 µM | –
O=C(COc1cccc(NC2CCOCC2)c1)NCC(O)CN1CCc2ccccc2C1 (stereo not shown) [Compound A93] | < 0.1 µM | – | 1 to 10 µM | –
O=C(COc1c(CN2CCOCC2)ccc2cccnc12)NC[C@H](O)CN1CCc2ccccc2C1 [Compound A94] | 0.101 to 1 µM | – | 10 to 50 µM | –
O=C(COc1ccc2c(cnn2C2CCNC2)c1)NCC(O)CN1CCc2ccccc2C1 (stereo not shown) [Compound A95] | 0.101 to 1 µM | – | 10 to 50 µM | –
OC(COc1cccc(-c2ccc(C(F)(F)F)cc2C(F)(F)F)c1)CN1CCc2ccccc2C1 (stereo not shown) [Compound D124] | – | 10 to 40 µM | – | > 20 µM

Structure (SMILES) | EC50 (Z-138 cells [2]; [4]) | EC50 (Z-138 cells [2]; Table D-2, read-out: ICW EC50) | EC50 (Z-138 cells [1]; [3]) | EC50 (Z-138 cells [1]; Table D-2)
OC(COc1cccc(-c2ccc(C(F)(F)F)cc2Cl)c1)CN1CCc2ccccc2C1 (stereo not shown) [Compound D127] | – | 10 to 40 µM | – | > 20 µM
COC(=O)c1cccc(-c2cccc(OCC(O)CN3CCc4ccccc4C3)c2)c1 (stereo not shown) [Compound D135] | – | > 20 µM | – | > 20 µM
Cn1ccc2ccc(-c3cccc(OCC(O)CN4CCc5ccccc5C4)c3)cc21 (stereo not shown) [Compound D147] | – | 1 to 10 µM | – | 10 to 40 µM
O=C1NCc2ccc(-c3cccc(OCC(O)CN4CCc5ccccc5C4)c3)cc21 (stereo not shown) [Compound D148] | – | 1 to 10 µM | – | 10 to 40 µM
CN1CCN(c2ccc(-c3cccc(OCC(O)CN4CCc5ccccc5C4)c3)cn2)CC1 (stereo not shown) [Compound D149] | – | 1 to 10 µM | – | 1 to 10 µM
CC(C)(C)OCc1cccc(-c2cccc(OCC(O)CN3CCc4ccccc4C3)c2)c1 (stereo not shown) [Compound D150] | – | 1 to 10 µM | – | > 20 µM
CN(C)c1ccc(-c2cccc(OCC(O)CN3CCc4ccccc4C3)c2)cc1 (stereo not shown) [Compound D151] | – | 1 to 10 µM | – | > 20 µM
NC(=O)c1ccc(-c2cccc(OCC(O)CN3CCc4ccccc4C3)c2)cc1 (stereo not shown) [Compound D152] | – | 1 to 10 µM | – | > 20 µM
O=C1COc2ccc(-c3cccc(OCC(O)CN4CCc5ccccc5C4)c3)cc2N1 (stereo not shown) [Compound D156] | – | 1 to 10 µM | – | 10 to 40 µM
Cn1nccc1C(=O)Nc1cccc(OCC(O)CN2CCc3ccccc3C2)c1 (stereo not shown) [Compound D160] | – | 1 to 10 µM | – | > 20 µM
O=C(Nc1cccc(OCC(O)CN2CCc3ccccc3C2)c1)c1cncnc1 (stereo not shown) [Compound D161] | – | 1 to 10 µM | – | > 20 µM
Cn1ccc(C(=O)Nc2cccc(OCC(O)CN3CCc4ccccc4C3)c2)n1 (stereo not shown) [Compound D162] | – | 1 to 10 µM | – | > 20 µM
OC(COc1cccc(-c2ccc3cnoc3c2)c1)CN1CCc2ccccc2C1 (stereo not shown) [Compound D166] | – | 10 to 40 µM | – | > 20 µM
OC(COc1cccc(-c2ccccc2Oc2ccccc2)c1)CN1CCc2ccccc2C1 (stereo not shown) [Compound D167] | – | 1 to 10 µM | – | > 20 µM
COc1ccc(-c2cccc(OCC(O)CN3CCc4ccccc4C3)c2)cc1Cl (stereo not shown) [Compound D168] | – | 10 to 40 µM | – | > 20 µM
OC(COc1cccc(-c2csc3ccccc23)c1)CN1CCc2ccccc2C1 (stereo not shown) [Compound D170] | – | 1 to 10 µM | – | > 20 µM
NC(=O)c1cccc(-c2cccc(OCC(O)CN3CCc4ccccc4C3)c2)c1 (stereo not shown) [Compound D171] | – | 1 to 10 µM | – | > 20 µM
N#Cc1cccc(-c2cccc(OCC(O)CN3CCc4ccccc4C3)c2)c1 (stereo not shown) [Compound D172] | – | 1 to 10 µM | – | > 20 µM

The next lines start with results.

EC50 (Z-138 cells [2]; [4]) | EC50 (Z-138 cells [2]; Table D-2, read-out: ICW EC50) | Structure (SMILES) | EC50 (Z-138 cells [1]; [3]) | EC50 (Z-138 cells [1]; Table D-2)
– | 0.101 to 1 µM | Cn1cnc2ccc(-c3cccc(NCC(O)CN4CCc5ccccc5C4)c3)cc21 (stereo not shown) [Compound D102] | – | 1 to 10 µM
– | 0.101 to 1 µM | OC(COc1cccc(-c2ccc3ncn(C4CCOCC4)c3c2)c1)CN1CCc2ccccc2C1 (stereo not shown) [Compound D103] | – | 1 to 10 µM
– | 1 to 10 µM | OC(COc1cccc(-c2ccc3ncn(-c4ccccc4)c3c2)c1)CN1CCc2ccccc2C1 (stereo not shown) [Compound D104] | – | > 20 µM
– | 1 to 10 µM | OC(COc1cccc(-c2ccc3ncn(Cc4ccccc4)c3c2)c1)CN1CCc2ccccc2C1 (stereo not shown) [Compound D105] | – | 10 to 40 µM
– | 1 to 10 µM | Cn1ncc2ccc(-c3cccc(OCC(O)CN4CCc5ccccc5C4)c3)cc21 (stereo not shown) [Compound D106] | – | > 20 µM
– | 1 to 10 µM | OC(COc1cccc(-c2ccc3[nH]ncc3c2)c1)CN1CCc2ccccc2C1 (stereo not shown) [Compound D107] | – | > 20 µM
– | 1 to 10 µM | Cn1ncc2cc(-c3cccc(OCC(O)CN4CCc5ccccc5C4)c3)ccc21 (stereo not shown) [Compound D108] | – | 10 to 40 µM
– | 0.101 to 1 µM | O=c1[nH]c2ccc(-c3cccc(OCC(O)CN4CCc5ccccc5C4)c3)cc2[nH]1 (stereo not shown) [Compound D109] | – | 10 to 40 µM
– | 0.101 to 1 µM | Cc1ccncc1-c1cccc(OCC(O)CN2CCc3ccccc3C2)c1 (stereo not shown) [Compound D113] | – | 10 to 40 µM
– | 1 to 10 µM | CN(CC(O)CN1CCc2ccccc2C1)c1cccc(CNC2CCOCC2)c1 (stereo not shown) [Compound D116] | – | > 20 µM
– | 1 to 10 µM | Cn1cnc2ccc(-c3cccc(NCC(O)CN4CCc5ccccc5C4)n3)cc21 (stereo not shown) [Compound D117] | – | > 20 µM
– | 0.101 to 1 µM | Cn1cnc2ccc(-c3ccnc(NCC(O)CN4CCc5ccccc5C4)c3)cc21 (stereo not shown) [Compound D118] | – | 1 to 10 µM
– | 0.101 to 1 µM | Cn1cnc2ccc(-c3ccnc(NCC(O)CN4CCc5ccccc5C4)n3)cc21 (stereo not shown) [Compound D119] | – | 1 to 10 µM
– | 0.101 to 1 µM | Cn1cnc2ccc(-c3cncc(NCC(O)CN4CCc5ccccc5C4)n3)cc21 (stereo not shown) [Compound D121] | – | > 20 µM
– | 1 to 10 µM | CN(C)c1ncc(-c2cccc(OCC(O)CN3CCc4ccccc4C3)c2)cn1 (stereo not shown) [Compound D125] | – | 10 to 40 µM
– | 1 to 10 µM | O=C(c1cccc(-c2cccc(OCC(O)CN3CCc4ccccc4C3)c2)c1)N1CCOCC1 (stereo not shown) [Compound D126] | – | > 20 µM
– | 1 to 10 µM | CS(=O)(=O)Nc1ccc(-c2cccc(OCC(O)CN3CCc4ccccc4C3)c2)cc1 (stereo not shown) [Compound D129] | – | 10 to 40 µM
– | 1 to 10 µM | CS(=O)(=O)c1cccc(-c2cccc(OCC(O)CN3CCc4ccccc4C3)c2)c1 (stereo not shown) [Compound D130] | – | > 20 µM
– | 1 to 10 µM | CS(=O)(=O)c1ccccc1-c1cccc(OCC(O)CN2CCc3ccccc3C2)c1 (stereo not shown) [Compound D131] | – | > 20 µM
– | 1 to 10 µM | OC(COc1cccc(-c2ccccc2C(F)(F)F)c1)CN1CCc2ccccc2C1 (stereo not shown) [Compound D132] | – | > 20 µM
– | 1 to 10 µM | COc1ccc(Cl)cc1-c1cccc(OCC(O)CN2CCc3ccccc3C2)c1 (stereo not shown) [Compound D134] | – | > 20 µM
– | 1 to 10 µM | Cn1ncc2ccc(-c3cc(COCC(O)CN4CCc5ccccc5C4)on3)cc21 (stereo not shown) [Compound D136] | – | > 20 µM
– | 1 to 10 µM | CC(=O)c1ccc(-c2cccc(OCC(O)CN3CCc4ccccc4C3)c2)cc1 (stereo not shown) [Compound D137] | – | > 20 µM
– | 1 to 10 µM | Cc1ccc(F)c(-c2cccc(OCC(O)CN3CCc4ccccc4C3)c2)c1 (stereo not shown) [Compound D138] | – | > 20 µM
– | 1 to 10 µM | OC(COc1cccc(-c2cccnc2F)c1)CN1CCc2ccccc2C1 (stereo not shown) [Compound D139] | – | > 20 µM
– | 0.101 to 1 µM | Cn1ccc2cnc(-c3cccc(OCC(O)CN4CCc5ccccc5C4)c3)nc21 (stereo not shown) [Compound D141] | – | > 20 µM
– | 1 to 10 µM | O=C(Nc1cccc(OCC(O)CN2CCc3ccccc3C2)c1)c1cnccn1 (stereo not shown) [Compound D145] | – | > 20 µM
– | 0.101 to 1 µM | CC(=O)Nc1cccc(-c2cccc(OCC(O)CN3CCc4ccccc4C3)c2)c1 (stereo not shown) [Compound D169] | – | > 20 µM
– | 0.101 to 1 µM | Cn1cnc2ccc(-c3cccc(OC[C@H](O)CN4CCc5ccccc5C4)c3)cc21 [Compound D174] | – | 1 to 10 µM
